Assay results as given in patent US20230051589A1, “COMPOUNDS AND COMPOSITIONS FOR TREATING CONDITIONS ASSOCIATED WITH NLRP ACTIVITY” (Novartis AG, priority 2018, published 2023).

Each compound was assayed on IL-1β production in PMA-differentiated THP-1 cells (assay: IL-1β production in PMA-differentiated THP-1 cells stimulated with gramicidin (hTHP-1 assay, 2% fetal bovine serum; Procedures 1-3)). Conditions: Homo sapiens, THP-1, Table B3; hTHP-1 assay containing 2% fetal bovine serum, gramicidin stimulation, IL-1β readout; read-out: hTHP-1 IC50.
Format: cell-based, human
Procedure, shortened: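 PMA-primed THP-1 cells (20 ng/ml PMA, 16-18 h) in RPMI with 2% FBS were pre-incubated with compounds for 1 h, from 100 μM downward in 3-fold steps (0.37% DMSO final), then stimulated with 5 μM gramicidin for 2 h. IL-1β in the supernatant was quantified by HTRF.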
Compound `NS(=O)(=NC(=O)Nc1c2c(cc3c1CC3)CCC2)c1cc2c(s1)CCNC2` (stereo not drawn) [Example 715, N′-((2,4,5,6-tetrahydro-1H-cyclobuta[f]inden-3-yl)carbamoyl)-4,5,6,7-tetrahydrothieno[3,2-c]pyridine-2-sulfonimidamide] has an IC50 of 40 to 200 nM. Compound `NS(=O)(=NC(=O)Nc1c2c(cc3c1CC3)CCC2)c1sc(CN2CCC2)cc1F` (stereo not drawn) [Example 718, 5-(Azetidin-1-ylmethyl)-3-fluoro-N′-((2,4,5,6-tetrahydro-1H-cyclobuta[f]inden-3-yl)carbamoyl)thiophene-2-sulfonimidamide] has an IC50 of 200 to 1000 nM. `CNC(c1ccc(S(N)(=O)=NC(=O)Nc2c3c(cc4c2CC4)CCC3)s1)C1CC1` (stereo not drawn) [Example 719, 5-(Cyclopropyl(methylamino)methyl)-N′-((2,4,5,6-tetrahydro-1H-cyclobuta[f]inden-3-yl)carbamoyl)thiophene-2-sulfonimidamide] gave an IC50 of 8 to 40 nM. Compound `CNCc1csc(S(N)(=O)=NC(=O)Nc2c3c(cc4c2CC4)CCC3)c1` (stereo not drawn) [Example 722, 4-((Methylamino)methyl)-N′-((2,4,5,6-tetrahydro-1H-cyclobuta[f]inden-3-yl)carbamoyl)thiophene-2-sulfonimidamide] has an IC50 of 40 to 200 nM. Compound `CNC(c1ccc(S(N)(=O)=NC(=O)Nc2c3c(cc4c2CCC4)CCC3)s1)C1CC1` (stereo not drawn) [Example 723, 5-(cyclopropyl(methylamino)methyl)-N′-((1,2,3,5,6,7-hexahydro-s-indacen-4-yl)carbamoyl)thiophene-2-sulfonimidamide] has an IC50 of 40 to 200 nM. In the case of `NS(=O)(=NC(=O)Nc1c2c(cc3c1CCC3)CCC2)c1cc2c(s1)CCNC2` (stereo not drawn) [Example 724, N′-((1,2,3,5,6,7-hexahydro-s-indacen-4-yl)carbamoyl)-4,5,6,7-tetrahydrothieno[3,2-c]pyridine-2-sulfonimidamide], the IC50 is reported as 40 to 200 nM. `NS(=O)(=NC(=O)Nc1c2c(cc3c1CCC3)CCC2)c1sc(CNC2CCC2)cc1F` (stereo not drawn) [Example 726, 5-((Cyclobutylamino)methyl)-3-fluoro-N′-((1,2,3,5,6,7-hexahydro-s-indacen-4-yl)carbamoyl)thiophene-2-sulfonimidamide] gave an IC50 of 200 to 1000 nM. `CN(Cc1ccc(S(N)(=O)=NC(=O)Nc2c3c(cc4c2CC4)CCC3)c(F)c1)C1CCC1` (stereo not drawn) [Example 727, 4-((cyclobutyl(methyl)amino)methyl)-2-fluoro-N′-((2,4,5,6-tetrahydro-1H-cyclobuta[f]inden-3-yl)carbamoyl)benzenesulfonimidamide] was tested, and the IC50 was 1000 to 5000 nM. In the case of `NS(=O)(=NC(=O)Nc1c2c(cc3c1CCC3)CCC2)c1ccc(-c2ccccc2CO)s1` (stereo not drawn) [Example 728, N′-((1,2,3,5,6,7-hexahydro-s-indacen-4-yl)carbamoyl)-5-(2-(hydroxymethyl)phenyl)thiophene-2-sulfonimidamide], the IC50 is reported as 200 to 1000 nM. `NS(=O)(=NC(=O)Nc1c2c(cc3c1CCC3)CCC2)c1ccc(-c2ccccc2O)s1` (stereo not drawn) [Example 729, N′-((1,2,3,5,6,7-hexahydro-s-indacen-4-yl)carbamoyl)-5-(2-hydroxyphenyl)thiophene-2-sulfonimidamide] gave an IC50 of 1000 to 5000 nM. `NS(=O)(=NC(=O)Nc1c2c(cc3c1CCC3)CCC2)c1ccc([C@@H]2CCCN2)s1` (stereo partly drawn) [Example 730, N′-((1,2,3,5,6,7-hexahydro-s-indacen-4-yl)carbamoyl)-5-((S)-pyrrolidin-2-yl)thiophene-2-sulfonimidamide] showed an IC50 of 200 to 1000 nM. For `NS(=O)(=NC(=O)Nc1c2c(cc3c1CCC3)CCC2)c1ccc([C@H]2CCCN2)s1` (stereo partly drawn) [Example 731, N′-((1,2,3,5,6,7-hexahydro-s-indacen-4-yl)carbamoyl)-5-((R)-pyrrolidin-2-yl)thiophene-2-sulfonimidamide], the IC50 was 200 to 1000 nM. Compound `NS(=O)(=NC(=O)Nc1c2c(cc3c1CC3)CCC2)c1sc2c(c1F)CNCC2` (stereo not drawn) [Example 732, 3-Fluoro-N′-((2,4,5,6-tetrahydro-1H-cyclobuta[f]inden-3-yl)carbamoyl)-4,5,6,7-tetrahydrothieno[3,2-c]pyridine-2-sulfonimidamide] has an IC50 of 8 to 40 nM. Compound `NS(=O)(=NC(=O)Nc1c2c(cc3c1CCC3)CCC2)c1sc(C(O)(CO)CO)nc1CO` (stereo not drawn) [Example 733, N′-((1,2,3,5,6,7-hexahydro-s-indacen-4-yl)carbamoyl)-4-(hydroxymethyl)-2-(1,2,3-trihydroxypropan-2-yl)thiazole-5-sulfonimidamide] has an IC50 of 40 to 200 nM. With `CN(C)Cc1ccc(S(N)(=O)=NC(=O)Nc2c3c(cc4c2CCC4)CCC3)s1` (stereo not drawn) [Example 735, 5-((Dimethylamino)methyl)-N-((1,2,3,5,6,7-hexahydro-s-indacen-4-yl)carbamoyl)thiophene-2-sulfonimidamide] the IC50 was 1000 to 5000 nM. For `CCn1ccc(S(N)(=O)=NC(=O)Nc2c3c(cc4c2CCC4)CCC3)n1` (stereo not drawn) [Example 736, 1-Ethyl-N′-((1,2,3,5,6,7-hexahydro-s-indacen-4-yl)carbamoyl)-1H-pyrazole-3-sulfonimidamide], the IC50 was 200 to 1000 nM. In the case of `CCn1ccc(S(N)(=O)=NC(=O)Nc2c3c(cc4c2CC4)CCC3)n1` (stereo not drawn) [Example 737, 1-Ethyl-N′-((2,4,5,6-tetrahydro-1H-cyclobuta[f]inden-3-yl)carbamoyl)-1H-pyrazole-3-sulfonimidamide], the IC50 is reported as 200 to 1000 nM. `CC(C)(O)c1nc(CO)c(S(N)(=O)=NC(=O)Nc2c3c(cc4c2C(=O)CC4)CCC3)s1` (stereo not drawn) [Example 738, 4-(Hydroxymethyl)-2-(2-hydroxypropan-2-yl)-N-((3-oxo-1,2,3,5,6,7-hexahydro-s-indacen-4-yl)carbamoyl)thiazole-5-sulfonimidamide] was tested, and the IC50 was 1000 to 5000 nM. In the case of `CC(C)n1nc(S(N)(=O)=NC(=O)Nc2c3c(cc4c2C(=O)CC4)CCC3)cc1C(C)(C)O` (stereo not drawn) [Example 740, 5-(2-Hydroxypropan-2-yl)-1-isopropyl-N′-((3-oxo-1,2,3,5,6,7-hexahydro-s-indacen-4-yl)carbamoyl)-1H-pyrazole-3-sulfonimidamide], the IC50 is reported as 200 to 1000 nM. `C[C@](O)(CO)c1ncc(S(N)(=O)=NC(=O)Nc2c3c(cc4c2CC4)CCC3)s1` (stereo partly drawn) [Example 741, 2-((S)-1,2-dihydroxypropan-2-yl)-N′-((2,4,5,6-tetrahydro-1H-cyclobuta[f]inden-3-yl)carbamoyl)thiazole-5-sulfonimidamide] was tested, and the IC50 was 8 to 40 nM. `C[C@@](O)(CO)c1ncc(S(N)(=O)=NC(=O)Nc2c3c(cc4c2CC4)CCC3)s1` (stereo partly drawn) [Example 742, 2-((R)-1,2-dihydroxypropan-2-yl)-N′-((2,4,5,6-tetrahydro-1H-cyclobuta[f]inden-3-yl)carbamoyl)thiazole-5-sulfonimidamide] showed an IC50 of 8 to 40 nM.

Same assay, conditions: Homo sapiens, THP-1, hTHP-1 assay containing 2% fetal bovine serum, Table B2, class symbols; read-out: IC50
With `C[C@](O)(CO)c1ncc([S@](N)(=O)=NC(=O)Nc2c3c(cc4c2CCC4)CCC3)s1` [Example 713, (R)-2-((S)-1,2-dihydroxypropan-2-yl)-N-((1,2,3,5,6,7-hexahydro-s-indacen-4-yl)carbamoyl)thiazole-5-sulfonimidamide] the IC50 was 8 to 40 nM. `C[C@@](O)(CO)c1ncc([S@](N)(=O)=NC(=O)Nc2c3c(cc4c2CCC4)CCC3)s1` [Example 714, (R)-2-((R)-1,2-dihydroxypropan-2-yl)-N-((1,2,3,5,6,7-hexahydro-s-indacen-4-yl)carbamoyl)thiazole-5-sulfonimidamide] gave an IC50 of 8 to 40 nM.

Same assay, conditions: Table B3; hTHP-1 assay containing 2% fetal bovine serum, gramicidin stimulation, IL-1β readout; read-out: hTHP-1 IC50
`CC(NC1CCC1)c1ccc(S(N)(=O)=NC(=O)Nc2c3c(cc4c2CC4)CCC3)c(F)c1` (stereo not drawn) [Example 725, 4-(1-(cyclobutylamino)ethyl)-2-fluoro-N′-((2,4,5,6-tetrahydro-1H-cyclobuta[f]inden-3-yl)carbamoyl)benzenesulfonimidamide] was tested, and the IC50 was 200 to 1000 nM.
